*1 amine or outer side, *2 acyl side, *3 side chain or, on linkers, in order; H or OH if unused. Where a SMILES comes first, the peptide text is derived from it. [ ]: non-standard residue; d: D form. X1 = O=C(Cc1cccc(N=Nc2cccc(CN[*:1])c2)c1)[*:2]
Legend:
hOX2 [1] = molecular target: T1, hOX2 (Homo sapiens, UniProt O43614); test: Radioligand competitive binding assay ([3H]EMPA); set-up: expressed in transfected cells; membranes
T1 sequence (O43614 1-444): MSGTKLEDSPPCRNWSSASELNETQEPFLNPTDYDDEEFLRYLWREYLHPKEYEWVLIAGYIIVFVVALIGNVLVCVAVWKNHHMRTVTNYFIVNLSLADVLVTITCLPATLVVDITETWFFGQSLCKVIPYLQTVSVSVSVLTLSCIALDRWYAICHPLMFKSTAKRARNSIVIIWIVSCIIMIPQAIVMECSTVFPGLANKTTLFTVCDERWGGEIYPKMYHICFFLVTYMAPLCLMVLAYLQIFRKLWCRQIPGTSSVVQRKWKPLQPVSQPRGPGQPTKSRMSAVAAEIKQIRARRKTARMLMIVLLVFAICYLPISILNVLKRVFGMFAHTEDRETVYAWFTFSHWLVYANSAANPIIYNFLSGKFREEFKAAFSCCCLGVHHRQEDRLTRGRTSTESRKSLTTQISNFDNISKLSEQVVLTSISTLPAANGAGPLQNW
Source text: The affinity towards OX2 was studied in a competitive radioligand binding assay on membranes derived from HEK-293 cells stably transfected with the human receptor. [^3H]EMPA, an OX2-selective orthosteric antagonist, was used as radioactive tracer to quantify residual binding after competitive displacement in the presence of the unlabeled ligands.^3 Wild-type OX-B and almorexant, a non-selective OX1 and OX2 antagonist, served as controls.^4
[^3H]EMPA (specific activity 27 Ci/mmol) and almorexant were synthesized at Janssen Research & Development LLC (San Diego, CA), while orexin-B was obtained from Bachem (Torrance, CA).
Cell membranes were prepared from a stable pool of HEK-293 cells transfected with the human OX2. Test compounds were dissolved in DMSO (10 mM stock solutions) and diluted in Dulbecco’s phosphate-buffered saline supplemented with 0.1% bovine serum albumin (BSA). Competition studies were performed by incubating the membranes with the OX2-selective antagonist [^3H]EMPA (2 nM) and different concentrations of the test compounds (7 concentrations ranging from 10^−9 to 10^−6 M). After a 60-minute incubation at rt, binding reactions were filtered to separate the excess of free ligand from the membranes. Filters were then counted for radioactivity in a scintillation counter. Nonspecific binding was determined in the presence of 10 µM almorexant.
Specific binding was determined and plotted as a function of the concentration of the compound using GraphPad Prism v8.3.1 (GraphPad Software, San Diego, USA). Data were analyzed by nonlinear regression using a one-site competition model.

hOX2 [2] = molecular target: T1, hOX2; test: FLIPR Tetra calcium mobilization assay, PFSK-1 cells; assay type: cell-based; conditions: PFSK-1, hOX2; FLIPR; in words
Experimental: (§1) Samples of trans phOX were kept in the dark both prior to and during the whole duration of the experiment to avoid undesired photoconversion caused by environmental light. Unless differently stated, data for cis phOX were obtained by pre-illuminating the samples for 10 min with 365 nm UV light.
(§2) PFSK-1 cells were cultured in RPMI 1640 supplemented with 10% fetal bovine serum (FBS), 100 units/ml penicillin, and 100 µg/ml streptomycin. Chinese hamster ovary-K1 (CHO-K1) cells stably transfected to express human OX1 were cultured in Dulbecco’s Modified Eagle’s Medium/Nutrient Mixture F-12 Ham (DMEM/F12 1:1) medium supplemented with 10% FBS and 600 µg/ml G418. All cell lines were grown at 37 °C in 5% CO2.
(§3) Cells were plated at 50,000 cells/well in 96-well black-wall plates with poly-D-lysine-coated clear bottoms and grown overnight at 37 °C in 5% CO2. […] Calcium-mediated changes in fluorescence were monitored in a Fluorometric Imaging Plate Reader (FLIPR) Tetra instrument (Molecular Devices, USA). Fluorescence intensity was measured for 12 s to establish baseline fluorescence before addition of the test compound (20 µL/well) and further readings for a total of 155 s (excitation at 470–495 nm, detection at 515–575 nm). […]
(§4) Raw data from the FLIPR Tetra was exported as the difference between maximum and minimum fluorescence observed for each well. […] Agonist potencies (EC50) are expressed as means + SD.

human OX1 = molecular target: T2, human OX1 (Homo sapiens, UniProt O43613); test: FLIPR Tetra calcium mobilization assay, CHO-K1 cells; assay type: cell-based; conditions: CHO-K1-hOX1; FLIPR; in words
T2 construct: expressed in transfected cells
T2 sequence (O43613 1-425): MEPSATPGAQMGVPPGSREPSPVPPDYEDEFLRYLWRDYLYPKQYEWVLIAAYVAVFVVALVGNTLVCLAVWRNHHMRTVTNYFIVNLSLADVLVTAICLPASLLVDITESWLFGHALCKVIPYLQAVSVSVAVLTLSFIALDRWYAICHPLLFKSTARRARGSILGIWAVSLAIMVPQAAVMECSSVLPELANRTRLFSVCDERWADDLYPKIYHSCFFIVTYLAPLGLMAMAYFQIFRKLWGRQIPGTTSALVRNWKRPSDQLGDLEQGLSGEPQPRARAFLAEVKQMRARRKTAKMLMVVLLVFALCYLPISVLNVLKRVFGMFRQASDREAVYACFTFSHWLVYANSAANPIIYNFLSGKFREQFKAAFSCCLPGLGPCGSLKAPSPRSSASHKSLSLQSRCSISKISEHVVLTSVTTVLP
Experimental: as §1, §2, §3, §4

[3] = Resistance to photofatigue; assay type: physicochemical; conditions: several UV (365 nm)/blue (455 nm) cycles of 3 min; 25 µM in PBS pH 7.4, 25 °C; UPLC
Experimental: Stability to photodegradation was evaluated by exposing a phOX sample (25 µM in PBS at pH 7.4 and 25 °C) to alternating intervals (3 min each) of UV and visible light illumination (365 and 455 nm, respectively). The trans-cis isomeric distributions under different illumination conditions were measured by integrating the area of the corresponding peaks after UPLC analysis. These values were then converted to isomer percentages and plotted. After several cycles, no reduction could be observed in the isomers’ peak area, thus confirming photorexin stability to photodegradation.

hOX2 [4] = molecular target: T1, hOX2; test: In vitro single-cell calcium imaging, tsA201-hOX2; assay type: cell-based; set-up: expressed in transfected cells; host or cells: tsA201 (transformed human kidney cells), transient, co-transfected with R-GECO1; conditions: 100 nM, AUC normalized to dark-adapted phOX, mean, n = 20 cells
Experimental: Transformed human kidney tsA201 cells were purchased from the European Collection of Authenticated Cell Culture. Cells were maintained at 37 °C in a humidified atmosphere with 5% CO2 and grown in Dulbecco’s Modified Eagle’s Medium/Nutrient Mixture F-12 Ham (DMEM/F12 1:1) medium (Life Technologies), supplemented with 10% FBS (Life Technologies) and 1% penicillin/streptomycin (Sigma-Aldrich).
Clones of GFP-labelled orexin receptors were kindly provided by Prof. Jyrki Kukkonen and the exact protein sequences have been reported by Putula et al.. The plasmid for the genetically encoded calcium indicator R-GECO1 was acquired from Addgene. Cells were transiently transfected with hOX1 or hOX2 receptors and R-GECO1 with X-tremeGENE 9 DNA Transfection Reagent (Roche Applied Science) following the manufacturer’s instructions. After 24 h, cells were harvested with accutase (Sigma-Aldrich) and plated onto 16-mm glass coverslips (Fisher Scientific) pre-treated with poly-L-Lysine (Sigma-Aldrich) to allow cell adhesion. Experiments were performed using pre-confluent cultures between 48 and 72 h after transfection. […]
Images were analyzed using FIJI (ImageJ). Data were analyzed and processed using GraphPad Prism v8.3.1. Statistical differences were determined by one-way ANOVA followed by Tukey’s multiple comparison post-hoc test. […]

OX1 receptor = conditions: membrane-based binding assay; ref Langmead et al., 5 (SI); cited from earlier work
Source text: Although the lack of binding with all three forms of OX-B - including the native ligand control - came unexpected, similar findings had already been observed for the OX1 receptor.

OX1 = conditions: in words; cited from earlier work
Source text: (§5) Among these, a family of neuroexcitatory peptides known as orexins (or hypocretins) is critically involved in regulating sleep and wakefulness, energy homeostasis, and reward. Orexin signaling is mediated by two closely related G protein-coupled receptors (GPCRs) – OX1 and OX2 (orexin) receptors – which are strongly conserved among mammals. While orexin cell bodies are concentrated in the hypothalamic area, orexin receptors are widely expressed in the central nervous system (CNS). Their endogenous ligands are two peptides, named ...

OX2 = conditions: in words; cited from earlier work
Source text: as §5

[5] = set-up: method as in 2 sources, one per row (each row's own in cited_ref): ref 75–77 = [75]; PMID 10087007; 75. Kastin AJ Akerstrom V Orexin A but not orexin B rapidly enters brain from blood by simple diffusion J Pharmacol Exp Ther 1999 289 219 223 10087007 || [76]; PMID 12626669; doi:10.1113/jphysiol.2002.038729; 76. John J Wu M-F Kodama T Siegel JM Intravenously administered hypocretin-1 alters brain amino acid release: an in vivo microdialysis study in rats J Physiol 2003 548 557 562 10.1113/jphysiol.2002.03 || [77]; PMID 14746374; doi:10.1093/sleep/26.8.953; 77. Fujiki N Yoshida Y Ripley B Mignot E Nishino S Effects of IV and ICV hypocretin-1 (orexin A) in hypocretin receptor-2 gene mutated narcoleptic dogs and IV hypocretin-1 replacement therapy in a hyp ||| ref 75 = [75]; PMID 10087007; 75. Kastin AJ Akerstrom V Orexin A but not orexin B rapidly enters brain from blood by simple diffusion J Pharmacol Exp Ther 1999 289 219 223 10087007; conditions: intravenous administration or blood-free perfusion in mammals; cited from earlier work

For `CNC(=O)[C@@H](c1ccccc1)N1CCc2cc(OC)c(OC)cc2[C@@H]1CCc1ccc(C(F)(F)F)cc1` [almorexant], the Ki (hOX2 [1]) was 3 nM and the “inhibition of [3H]EMPA binding” value (hOX2 [1]; control ligands, HEK-293-hOX2 membranes, [3H]EMPA 2 nM, 60 min rt, 10^-9 to 10^-6 M, two independent experiments in triplicates) was “fully displaced the radioligand”.
With `CC[C@H](C)[C@H](NC(=O)CNC(=O)[C@H](C)NC(=O)[C@H](C)NC(=O)Cc1cccc(N=Nc2cccc(CNC(=O)CNC(=O)[C@H](CO)NC(=O)[C@H](C)NC(=O)[C@H](CCC(N)=O)NC(=O)[C@H](CC(C)C)NC(=O)[C@H](CC(C)C)NC(=O)[C@H](CCCNC(=N)N)NC(=O)[C@H](CCC(N)=O)NC(=O)[C@H](CC(C)C)NC(=O)[C@H](CCCNC(=N)N)NC(=O)CNC(=O)[C@H](CCC(N)=O)NC(=O)[C@H](CC(C)C)NC(=O)CN)c2)c1)C(=O)N[C@@H](CC(C)C)C(=O)N[C@H](C(=O)N[C@@H](CCSC)C(N)=O)[C@@H](C)O` [photorexin] (H-GLQGRLQRLLQASG[X1]AAGILTM-NH2) the potency (hOX2 [2]) was “high nanomolar potency”, the potency (human OX1) was “high nanomolar potency” and the “degradation or bleaching over light cycles” value [3] was “without significant degradation or bleaching”. The “retained activity under UV, relative to dark-adapted peptide” value (hOX2 [4]; 365 nm (cis-enriched)) was 6% and the “recovery of calcium response under blue light, relative to initial response” value (hOX2 [4]; 455 nm after UV) was 52%.
For “OX-A: endogenous orexin peptide with two disulfide bridges (QPLPDCCRQKTCSCRLYELLHGAGNHAAGILTL; not fully specified; Orexin-A; UniProt O43612 34-66, looked up)”, the “occupation of OX1 orthosteric site versus [3H]SB-674042” value (OX1 receptor) is listed as “failed to occupy the receptor orthosteric site”, the “affinity at OX1” value (OX1) is listed as “high affinity” and the “affinity at OX2” value (OX2) is listed as “high affinity”. For the same compound, the blood-brain barrier penetration [5] was “penetrate the blood-brain barrier by simple diffusion”.
